Experimental data taken from patent publication US20190231785A1, “PHOSPHODIESTERASE INHIBITOR TREATMENT” (Cyrano Therapeutics, Inc., priority 2012, published 2019).
Marks after values point to notes of the source that are not given here.

Test system: patients with hyposmia
Experiment: Olfactometry (DT, RT, ME, H; forced-choice, three-stimuli, stepwise-staircase, four odors), open trial of oral theophylline
Assay type: in vivo, human
Description: Patients initially reported their sensory dysfunction as either loss of taste (e.g., flavor) and/or smell function. This subjective response was documented by objective psychophysical measurements of olfactory function administered to each patient by use of a forced-choice, three-stimuli, stepwise-staircase technique in a fixed, controlled design (1, 53). Efficacy of this technique and results of testing were previously documented in a double-blind clinical trial (53). Four odors were used; they were pyridine (dead-fish odor), nitrobenzene (bitter-almond odor), thiophene (petroleum-like odor) and amyl acetate (banana-oil odor). Detection thresholds (DT), recognition thresholds (RT) and magnitude estimation (ME) values for each odor were determined as previously described (1, 53). Thresholds were converted into bottle units (BU) as previously described (53) and results reported as M±SEM of correct responses for each odor in each treatment group; ME was reported in % and results calculated to obtain M±SEM for each treatment group for all correct responses using data for the four highest odor concentrations presented (from 10^−2M—an absolute odor concentration).
In addition, each patient graded the hedonic (H) value of each odor presented for these same odor concentrations (from 10^−2M—an absolute odor concentration using a −100-0-+100 scale). […] Results were obtained by calculating the arithmetical sum of each correct recognition response for each odor with respect to its pleasantness, unpleasantness or neutrality. Arithmetic M±SEM were obtained for each treatment group for each odor presented.
After determination of hyposmia, patients were treated in an open label, fixed design, controlled open trial. Patients were given an oral extended release theophylline in divided daily doses taken in the middle of breakfast and lunch. All patients were initially given 200 mg of theophylline; changes in this dose were made based upon subjective responses to therapy. If at a subsequent return visit, patients reported ≥5% subjective improvement in overall smell function, they continued on this same dose of theophylline and were reevaluated after four to six months of continued treatment. Results from any subsequent return from these improved patients were not included in any subsequent data report. All subsequent comparisons between treated and untreated patients were made only between those patients continuing in the study compared to their own measurements obtained in the untreated state. If patients reported <5% subjective improvement, their theophylline dose was increased by 200 mg daily and they were scheduled for retesting at the study site after two to four months at this new dosage. For patients that reported <5% improvement, this sequence continued until patients reached 800 mg of theophylline, at which time the study was considered completed.
Patients returned for reevaluation after two to four months of treatment. Measurements of blood serum theophylline were measured by a fluorescence polarization assay (Abbott, Chicago, Ill.). At this time, subjective changes in smell function were measured independently (compared to patient's memory of previous normal smell function monitored by use of the patients' daily measurements) using the scale from −100-0-+100 previously described (vs). After independently recording their subjective responses, smell function was measured for all four odors with DT, RT, ME and H determined without recourse to prior measurements.
Since data for all measurements from each patient group (local or distant) on each dose level were combined mean and SEM for each measurement (DT, RT, ME, H) of smell function for each treatment group were calculated on this basis. Differences in measurements between before treatment and each treatment level were calculated and significance of differences estimated using Student t tests (values p<0.05 considered significant). […]

[1] = Type II hyposmia, oral 800 mg, after treatment (16 patients)
[2] = Type III hyposmia, oral 200 mg, after treatment (4 patients)
[3] = Type III hyposmia, oral 400 mg, after treatment (2 patients)
[4] = Type III hyposmia, oral 600 mg, after treatment (4 patients)
[5] = oral 800 mg, vs before treatment

## Cn1c(=O)c2[nH]cnc2n(C)c1=O [theophylline]
Type II hyposmia, oral 600 mg, after treatment (105 patients)
  recognition threshold (RT), thiophene: 8.1 ± 0.3^a BU
[1]
  detection threshold (DT), amyl acetate: 4.6 ± 0.7^a BU
  detection threshold (DT), nitrobenzene: 4.6 ± 0.9^a BU
  detection threshold (DT), pyridine: 4.7 ± 0.7^a BU
  detection threshold (DT), thiophene: 4.9 ± 0.7^a BU
  hedonic value (H), amyl acetate: 13 ± 9%
  hedonic value (H), nitrobenzene: 22 ± 11%
  hedonic value (H), pyridine: −31 ± 9%
  hedonic value (H), thiophene: −24 ± 8%
  magnitude estimation (ME), amyl acetate: 38 ± 6^e %
  magnitude estimation (ME), nitrobenzene: 42 ± 8^b %
  magnitude estimation (ME), pyridine: 43 ± 5^e %
  magnitude estimation (ME), thiophene: 33 ± 6%
  recognition threshold (RT), amyl acetate: 7.1 ± 0.6^a BU
  recognition threshold (RT), nitrobenzene: 5.1 ± 0.9^a BU
  recognition threshold (RT), pyridine: 7.1 ± 0.7^a BU
  recognition threshold (RT), thiophene: 8.0 ± 1.0 BU
[2]
  detection threshold (DT), amyl acetate: 2.8 ± 0.5 BU
  detection threshold (DT), nitrobenzene: 3.8 ± 0.7 BU
  detection threshold (DT), pyridine: 4.0 ± 0.6 BU
  detection threshold (DT), thiophene: 3.2 ± 0.8 BU
  hedonic value (H), amyl acetate: 14 ± 13%
  hedonic value (H), nitrobenzene: 13 ± 12%
  hedonic value (H), pyridine: −40 ± 13%
  hedonic value (H), thiophene: −40 ± 18%
  magnitude estimation (ME), amyl acetate: 32 ± 10%
  magnitude estimation (ME), nitrobenzene: 33 ± 8%
  magnitude estimation (ME), pyridine: 45 ± 11%
  magnitude estimation (ME), thiophene: 47 ± 15%
  recognition threshold (RT), amyl acetate: 5.2 ± 1.6 BU
  recognition threshold (RT), nitrobenzene: 5.0 ± 0.6 BU
  recognition threshold (RT), pyridine: 5.2 ± 0.5 BU
  recognition threshold (RT), thiophene: 3.8 ± 0.6 BU
[3]
  detection threshold (DT), amyl acetate: 2 BU
  detection threshold (DT), nitrobenzene: 2.5 BU
  detection threshold (DT), pyridine: 5.0 BU
  detection threshold (DT), thiophene: 1 BU
  hedonic value (H), amyl acetate: 75%
  hedonic value (H), nitrobenzene: −62%
  hedonic value (H), pyridine: −40%
  hedonic value (H), thiophene: −99%
  magnitude estimation (ME), amyl acetate: 75%
  magnitude estimation (ME), nitrobenzene: 79%
  magnitude estimation (ME), pyridine: 45%
  magnitude estimation (ME), thiophene: 99%
  recognition threshold (RT), amyl acetate: 3 BU
  recognition threshold (RT), nitrobenzene: 4.0 BU
  recognition threshold (RT), pyridine: 5.0 BU
  recognition threshold (RT), thiophene: 1 BU
[4]
  detection threshold (DT), amyl acetate: 2.5 ± 1.0 BU
  detection threshold (DT), nitrobenzene: 3.8 ± 0.9 BU
  detection threshold (DT), pyridine: 3.8 ± 0.9 BU
  detection threshold (DT), thiophene: 2.0 ± 1.0 BU
  hedonic value (H), amyl acetate: 28 ± 19%
  hedonic value (H), nitrobenzene: 12 ± 16%
  hedonic value (H), pyridine: −26 ± 22%
  hedonic value (H), thiophene: −35 ± 24%
  magnitude estimation (ME), amyl acetate: 31 ± 17%
  magnitude estimation (ME), nitrobenzene: 33 ± 13%
  magnitude estimation (ME), pyridine: 41 ± 15%
  magnitude estimation (ME), thiophene: 42 ± 20%
  recognition threshold (RT), amyl acetate: 4.8 ± 1.7 BU
  recognition threshold (RT), nitrobenzene: 4.5 ± 1.3 BU
  recognition threshold (RT), pyridine: 5.5 ± 0.9 BU
  recognition threshold (RT), thiophene: 3.8 ± 0.9 BU
Oral 200 mg (Table IV)
  decrease in H, pyridine: 2%
  decrease in H, thiophene: 2%
  increase in H, amyl acetate (more pleasant): 2%
  increase in H, nitrobenzene (more pleasant): 2%
  increase in ME, amyl acetate: 5%
  increase in ME, nitrobenzene: 5%
  increase in ME, pyridine: 6%
  increase in ME, thiophene: 5%
  total mean increase in ME, all odors: 5.1%
Oral 200 mg, vs before treatment, not statistically significant
  increase of H value, amyl acetate (more pleasant): 50%
Oral 400 mg (Table V)
  change in H, amyl acetate (decreased, became more pleasant): 1%
  change in H, nitrobenzene (decreased, became more pleasant): 4%
  change in H, pyridine (increases in H values): 9%
  change in H, thiophene (increases in H values): 7%
  increase in ME, amyl acetate: 8%
  increase in ME, nitrobenzene: 11%
  increase in ME, pyridine: 12%
  increase in ME, thiophene: 12%
Oral 400 mg, vs before treatment
  decrease of H value, thiophene (more unpleasant): 40%
Oral 400 mg, vs before treatment, not statistically significant
  increase of H value, nitrobenzene (more pleasant): 50%
Oral 600 mg (Table VI)
  total mean increase in ME, all odors: 6.9%
[5]
  decrease of H value, pyridine (more unpleasant): 55%
  decrease of H value, thiophene (more unpleasant): 37%
  increase of H value, amyl acetate (more pleasant): about 50%
  increase of H value, nitrobenzene (more pleasant): about 50%
